{"source": "ChEMBL document CHEMBL5214887", "about": "“Dispirotripiperazine-core compounds, their biological activity with a focus on broad antiviral property, and perspectives in drug design (mini-review)” (Eur J Med Chem, 2021)", "key": {"[1]": {"assay": "[…] in herpetic encephalitis mouse model assessed as reduction in mortality at 250 mg/kg,po bid for 5 days", "type": "organism-based", "design": "scale not given: the % may be the effect or the level left", "details": "in vivo, 120 h, time 5 day"}, "Human alphaherpesvirus 1 [2]": {"system": "Human alphaherpesvirus 1", "assay": "Antiviral activity against HSV-1 infected in African green monkey GMK-AH-1 cells assessed as viral growth inhibition incubated for 73 hrs by crystal violet staining assay", "type": "functional, organism-based", "details": "Human alphaherpesvirus 1, 73 h"}, "[3]": {"system": "Human papillomavirus type 16", "assay": "Antiviral activity against HPV16 infected in human HEK293T cells assessed as viral growth inhibition incubated for 72 hrs by green fluorescent protein based method", "type": "functional, organism-based", "details": "Human papillomavirus 16, HEK-293T"}, "Human betaherpesvirus 5 [4]": {"system": "Human betaherpesvirus 5", "assay": "Antiviral activity against ganciclovir resistant HCMV infected in human HELF cells assessed as viral growth inhibition incubated for 8 days", "type": "functional, organism-based", "details": "Human betaherpesvirus 5, HELF, 192 h"}, "[5]": {"assay": "Antiviral activity against HPV18 infected in human HEK293T cells assessed as viral growth inhibition incubated for 72 hrs by green fluorescent protein based method", "type": "functional, cell-based", "details": "human papillomavirus 18, HEK-293T"}, "Human alphaherpesvirus 2": {"system": "Human alphaherpesvirus 2", "assay": "Antiviral activity against HSV-2 infected in African green monkey GMK-AH-1 cells assessed as viral growth inhibition incubated for 73 hrs", "type": "functional, organism-based", "details": "Human alphaherpesvirus 2, 73 h"}, "[6]": {"system": "Human immunodeficiency virus 1", "assay": "Antiviral activity against HIV-1 assessed as viral growth inhibition", "type": "functional, organism-based"}, "Human alphaherpesvirus 1 [7]": {"system": "Human alphaherpesvirus 1", "assay": "Antiviral activity against acyclovir resistant HSV-1 infected in African green monkey GMK-AH-1 cells assessed as viral growth inhibition incubated for 73 hrs", "type": "functional, organism-based", "details": "Human alphaherpesvirus 1, 73 h"}, "[8]": {"system": "Respiratory syncytial virus", "assay": "Antiviral activity against RSV assessed as viral growth inhibition", "type": "functional, organism-based", "details": "human respiratory syncytial virus"}, "[9]": {"system": "Human immunodeficiency virus", "assay": "Antiviral activity against HIV assessed as viral growth inhibition", "type": "functional, organism-based", "details": "Human immunodeficiency virus 1"}, "Human betaherpesvirus 5 [10]": {"system": "Human betaherpesvirus 5", "assay": "Antiviral activity against ganciclovir sensitive HCMV infected in human HELF cells assessed as viral growth inhibition incubated for 8 days", "type": "functional, organism-based", "details": "Human betaherpesvirus 5, HELF, 192 h"}, "Deltapapillomavirus 4": {"system": "Deltapapillomavirus 4", "assay": "Antiviral activity against BPV1 infected in human HEK293T cells assessed as viral growth inhibition incubated for 72 hrs by green fluorescent protein based method", "type": "functional, organism-based", "details": "Deltapapillomavirus 4, HEK-293T"}, "Lyssavirus rabies": {"system": "Lyssavirus rabies", "assay": "Antiviral activity against radiolabeled Rabies virus infected in bovine MDBK cell at 80 ug/ml incubated for 4 hrs by attachment assay based liquid scintillation counting analysis", "type": "functional", "details": "dose 80 µg/ml"}, "[11]": {"assay": "Toxicity in mouse assessed as lethal dose at ip as single dose", "type": "organism-based", "details": "in vivo"}, "Human alphaherpesvirus 1 [12]": {"system": "Human alphaherpesvirus 1", "assay": "Antiviral activity against HSV-1 assessed as viral growth inhibition", "type": "functional, organism-based"}}, "data": [{"compound": "O=C(CCCl)N1CC[N+]2(CC1)CC[N+]1(CCN(C(=O)CCCl)CC1)CC2.[Cl-].[Cl-]", "values": [{"measurement": "Activity", "setting": "[1]", "value": 35, "unit": "%"}]}, {"compound": "Cc1nc(N2CC[N+]3(CC2)CC[N+]2(CCNCC2)CC3)c([N+](=O)[O-])c(N2CC[N+]3(CC2)CC[N+]2(CCNCC2)CC3)n1", "values": [{"measurement": "IC50", "setting": "Human alphaherpesvirus 1 [2]", "value": 1.48, "unit": "µM"}]}, {"compound": "Cl.Cl.[O-][n+]1onc2ncnc(N3CC[N+]4(CC3)CC[N+]3(CCN(c5ncnc6no[n+]([O-])c56)CC3)CC4)c21", "values": [{"measurement": "IC50", "setting": "[3]", "value": 1.4, "unit": "µM"}, {"measurement": "IC50", "setting": "Human betaherpesvirus 5 [4]", "value": 0.15, "unit": "µM"}, {"measurement": "IC50", "setting": "[5]", "value": 0.7, "unit": "µM"}, {"measurement": "IC50", "setting": "Human alphaherpesvirus 2", "value": 10.2, "unit": "µM"}, {"measurement": "IC50", "setting": "[6]", "value": 150, "unit": "µM"}, {"measurement": "IC50", "setting": "Human alphaherpesvirus 1 [7]", "value": 8.1, "unit": "µM"}, {"measurement": "IC50", "setting": "[8]", "value": 7.5, "unit": "µM"}, {"measurement": "IC50", "setting": "[9]", "value": 1.4, "unit": "µM"}, {"measurement": "IC50", "setting": "Human betaherpesvirus 5 [10]", "value": 0.15, "unit": "µM"}, {"measurement": "IC50", "setting": "Deltapapillomavirus 4", "value": 2.6, "unit": "µM"}, {"measurement": "Activity", "setting": "Lyssavirus rabies", "value": 95, "unit": "%"}]}, {"compound": "OC(CCl)CN1CC[N+]2(CC1)CC[N+]1(CCN(CC(O)CCl)CC1)CC2.[Cl-].[Cl-]", "note": "(configuration not stated) [PROSPIDIUM CHLORIDE]", "values": [{"measurement": "LD50", "setting": "[11]", "value": 100, "unit": "mg/kg"}, {"measurement": "IC50", "setting": "Human alphaherpesvirus 1 [12]", "value": 62.5, "unit": "µM"}]}, {"compound": "Cc1nc(N2CCC[N+]3(CC2)CC[N+]2(CCCNCC2)CC3)c([N+](=O)[O-])c(N2CCC[N+]3(CC2)CC[N+]2(CCCNCC2)CC3)n1", "note": "(configuration not stated)", "values": [{"measurement": "IC50", "setting": "[8]", "value": "> 100", "unit": "µM"}, {"measurement": "IC50", "setting": "[9]", "value": 4, "unit": "µM"}, {"measurement": "IC50", "setting": "Human alphaherpesvirus 1 [12]", "value": 1.97, "unit": "µM"}]}, {"compound": "Cc1nc(N2CC[N+]3(CCC[N+]4(CCNCC4)CC3)CC2)c([N+](=O)[O-])c(N2CC[N+]3(CCC[N+]4(CCNCC4)CC3)CC2)n1", "values": [{"measurement": "IC50", "setting": "Human alphaherpesvirus 1 [12]", "value": 1.12, "unit": "µM"}]}, {"compound": "O=C(CCBr)N1CC[N+]2(CC1)CC[N+]1(CCN(C(=O)CCBr)CC1)CC2.[Cl-].[Cl-]", "note": "[DIBROSPIDIUM CHLORIDE]", "values": [{"measurement": "Activity", "setting": "[1]", "value": 35, "unit": "%"}, {"measurement": "LD50", "setting": "[11]", "value": 1920, "unit": "mg/kg"}, {"measurement": "IC50", "setting": "Human alphaherpesvirus 1 [12]", "value": 66.1, "unit": "µM"}]}]}
